Assay results: paper PMC5218480 (PLoS ONE, 2017)

Test system: MV-4-11 cells
Assay: Gene expression microarray analysis (Affymetrix PrimeView) and GSEA
Type: cell-based, human
Set-up: RFU PODN (11730768_x_at) / Fold change /veh PODN (11730768_x_at) / RFU LINC00158 (11744669_a_at) / Fold change /veh LINC00158 (11744669_a_at) / RFU DUSP10 (11751237_a_at) / Fold change /veh DUSP10 (11751237_a_at) / RFU ID3 (11757404_x_at) / Fold change /veh ID3 (11757404_x_at) / RFU PLEKHG5 (11737974_s_at) / Fold change /veh PLEKHG5 (11737974_s_at) / RFU LRRC4B (11730491_at) / Fold change /veh LRRC4B (11730491_at) / RFU GIMAP4 (11747438_a_at) / Fold change /veh GIMAP4 (11747438_a_at) / RFU KRT8 (11758183_x_at) / Fold change /veh KRT8 (11758183_x_at) / RFU CNN1 (11734310_a_at) / Fold change /veh CNN1 (11734310_a_at) / RFU VPS37D (11726825_at) / Fold change /veh VPS37D (11726825_at) / RFU C10orf10 (11716522_x_at) / Fold change /veh C10orf10 (11716522_x_at) / RFU KIR2DL2 /// KIR2DL4 /// KIR2DL5A /// KIR2DL5B /// KIR2DS1 /// KIR2DS2 /// KIR2DS3 /// KIR2DS4 /// KIR3DL3 /// KIR3DL3 /// KIR3DS1 (11738374_at) / Fold change /veh KIR2DL2 /// KIR2DL4 /// KIR2DL5A /// KIR2DL5B /// KIR2DS1 /// KIR2DS2 /// KIR2DS3 /// KIR2DS4 /// KIR3DL3 /// KIR3DL3 /// KIR3DS1 (11738374_at) / RFU C1QL1 (11718748_at) / Fold change /veh C1QL1 (11718748_at) / RFU TMPRSS4 (11747572_a_at) / Fold change /veh TMPRSS4 (11747572_a_at) / RFU HAMP (11756126_x_at) / Fold change /veh HAMP (11756126_x_at) / RFU RNFT2 (11725882_a_at) / Fold change /veh RNFT2 (11725882_a_at) / RFU NR4A2 (11747474_a_at) / Fold change /veh NR4A2 (11747474_a_at) / RFU ABCC12 (11746883_a_at) / Fold change /veh ABCC12 (11746883_a_at) / RFU TMEM136 (11760407_x_at) / Fold change /veh TMEM136 (11760407_x_at) / RFU CLDN22 /// WWC2 (11732394_at) / Fold change /veh CLDN22 /// WWC2 (11732394_at) / RFU HLA-DPB1 (11760878_x_at) / Fold change /veh HLA-DPB1 (11760878_x_at) / RFU SPINT1 (11716480_a_at) / Fold change /veh SPINT1 (11716480_a_at) / RFU GAP43 (11754022_s_at) / Fold change /veh GAP43 (11754022_s_at) / RFU A4GNT (11735810_at) / Fold change /veh A4GNT (11735810_at) / RFU PRB3 (11715151_x_at) / Fold change /veh PRB3 (11715151_x_at) / RFU TUBB4B (11761932_at) / Fold change /veh TUBB4B (11761932_at) / RFU CAPN14 (11732068_a_at) / Fold change /veh CAPN14 (11732068_a_at) / RFU TMCC2 (11721928_a_at) / Fold change /veh TMCC2 (11721928_a_at) / RFU IRGQ (11745062_a_at) / Fold change /veh IRGQ (11745062_a_at) / RFU FAM174B (11720279_a_at) / Fold change /veh FAM174B (11720279_a_at) / RFU TMPRSS4 (11748680_a_at) / Fold change /veh TMPRSS4 (11748680_a_at) / RFU FAM212B (11763350_a_at) / Fold change /veh FAM212B (11763350_a_at) / RFU PLEKHG5 (11743358_a_at) / Fold change /veh PLEKHG5 (11743358_a_at) / RFU ZSCAN30 (11745921_a_at) / Fold change /veh ZSCAN30 (11745921_a_at) / RFU CMKLR1 (11741424_a_at) / Fold change /veh CMKLR1 (11741424_a_at) / RFU LOC101060620 /// MAPK8IP1 (11723275_at) / Fold change /veh LOC101060620 /// MAPK8IP1 (11723275_at) / RFU SPTSSB (11747773_x_at) / Fold change /veh SPTSSB (11747773_x_at) / RFU PRSS12 (11739890_at) / Fold change /veh PRSS12 (11739890_at) / RFU BIN1 (11741810_x_at) / Fold change /veh BIN1 (11741810_x_at) / RFU WNT11 (11732464_a_at) / Fold change /veh WNT11 (11732464_a_at) / RFU C10orf10 (11716521_a_at) / Fold change /veh C10orf10 (11716521_a_at) / RFU C5orf56 (11738089_at) / Fold change /veh C5orf56 (11738089_at) / RFU CYB561 (11721691_x_at) / Fold change /veh CYB561 (11721691_x_at) / RFU ANKRD19P (11752326_a_at) / Fold change /veh ANKRD19P (11752326_a_at) / RFU OR2T12 /// OR2T33 /// OR2T8 (11738714_s_at) / Fold change /veh OR2T12 /// OR2T33 /// OR2T8 (11738714_s_at) / RFU VCAN (11748164_a_at) / Fold change /veh VCAN (11748164_a_at) / RFU JSRP1 (11732532_at) / Fold change /veh JSRP1 (11732532_at) / RFU KRTAP10-11 (11738290_x_at) / Fold change /veh KRTAP10-11 (11738290_x_at) / RFU MYO3A (11730013_a_at) / Fold change /veh MYO3A (11730013_a_at) / RFU EBF3 (11725865_a_at) / Fold change /veh EBF3 (11725865_a_at) / RFU CAMK2N1 (11719241_x_at) / Fold change /veh CAMK2N1 (11719241_x_at) / RFU C5orf56 (11738088_a_at) / Fold change /veh C5orf56 (11738088_a_at) / RFU OLFML3 (11715873_a_at) / Fold change /veh OLFML3 (11715873_a_at) / RFU LOC100653217 /// NTM (11731650_a_at) / Fold change /veh LOC100653217 /// NTM (11731650_a_at) / RFU MAPK11 (11762145_a_at) / Fold change /veh MAPK11 (11762145_a_at) / RFU FIZ1 (11724087_x_at) / Fold change /veh FIZ1 (11724087_x_at) / RFU OASL (11726364_x_at) / Fold change /veh OASL (11726364_x_at) / RFU SOX15 (11748057_x_at) / Fold change /veh SOX15 (11748057_x_at) / RFU CD79A (11719716_a_at) / Fold change /veh CD79A (11719716_a_at) / RFU HIST1H1D (11736915_at) / Fold change /veh HIST1H1D (11736915_at) / RFU CASKIN2 (11723855_a_at) / Fold change /veh CASKIN2 (11723855_a_at) / RFU LOC730098 (11760151_x_at) / Fold change /veh LOC730098 (11760151_x_at) / RFU OR4N2 (11742367_at) / Fold change /veh OR4N2 (11742367_at) / RFU PRRT2 (11749266_a_at) / Fold change /veh PRRT2 (11749266_a_at) / RFU SNX32 (11753110_a_at) / Fold change /veh SNX32 (11753110_a_at) / RFU CDHR5 (11726645_a_at) / Fold change /veh CDHR5 (11726645_a_at) / RFU RCAN1 (11760418_a_at) / Fold change /veh RCAN1 (11760418_a_at) / RFU FAM167A (11723789_a_at) / Fold change /veh FAM167A (11723789_a_at) / RFU FAM26E (11764081_at) / Fold change /veh FAM26E (11764081_at) / RFU ISYNA1 (11749810_s_at) / Fold change /veh ISYNA1 (11749810_s_at) / RFU ACY1 (11761880_at) / Fold change /veh ACY1 (11761880_at) / RFU 11764098_at / Fold change /veh 11764098_at / RFU SAMD14 (11745864_x_at) / Fold change /veh SAMD14 (11745864_x_at) / RFU NPB (11741838_a_at) / Fold change /veh NPB (11741838_a_at) / RFU TMPRSS6 (11731388_a_at) / Fold change /veh TMPRSS6 (11731388_a_at) / RFU KRTAP10-2 (11738614_at) / Fold change /veh KRTAP10-2 (11738614_at) / RFU ARHGAP8 /// PRR5-ARHGAP8 (11727945_x_at) / Fold change /veh ARHGAP8 /// PRR5-ARHGAP8 (11727945_x_at) / RFU KRTAP5-7 /// NADSYN1 (11734609_at) / Fold change /veh KRTAP5-7 /// NADSYN1 (11734609_at) / RFU RASL12 (11751679_a_at) / Fold change /veh RASL12 (11751679_a_at) / RFU CDKN2B (11736163_a_at) / Fold change /veh CDKN2B (11736163_a_at) / RFU PRF1 (11729649_at) / Fold change /veh PRF1 (11729649_at) / RFU, ZNF638 /// ZNF638-IT1 / Fold change vs veh, ZNF638 /// ZNF638-IT1 / RFU, PANK3 / Fold change vs veh, PANK3 / RFU, SH3YL1 / Fold change vs veh, SH3YL1 / RFU, ZEB2 / Fold change vs veh, ZEB2 / RFU, NRIP1 / Fold change vs veh, NRIP1 / RFU, PTTG1IP / Fold change vs veh, PTTG1IP / RFU, CAPN2 / Fold change vs veh, CAPN2 / RFU, MED14 / Fold change vs veh, MED14 / RFU, SNORA58 / Fold change vs veh, SNORA58 / RFU, C1orf63 / Fold change vs veh, C1orf63 / RFU, LRRFIP1 / Fold change vs veh, LRRFIP1 / RFU, NDUFAF7 / Fold change vs veh, NDUFAF7 / RFU, SLC12A2 / Fold change vs veh, SLC12A2 / RFU, IBTK / Fold change vs veh, IBTK / RFU, ESF1 / Fold change vs veh, ESF1 / Fold change vs veh, TMEM50B / RFU, TAOK1 / Fold change vs veh, TAOK1 / RFU, ACBD3 / Fold change vs veh, ACBD3 / RFU, TMA16 / Fold change vs veh, TMA16 / RFU, RWDD3 / Fold change vs veh, RWDD3 / RFU, BCAT1 / Fold change vs veh, BCAT1 / RFU, EDEM3 / Fold change vs veh, EDEM3 / RFU, TMEM33 / Fold change vs veh, TMEM33 / RFU, WDR75 / Fold change vs veh, WDR75 / RFU, AHCTF1 / Fold change vs veh, AHCTF1 / RFU, TFRC / Fold change vs veh, TFRC / RFU, ZDHHC17 / Fold change vs veh, ZDHHC17 / RFU, NOM1 / Fold change vs veh, NOM1 / RFU, ARL8B / Fold change vs veh, ARL8B / RFU, ZBTB11 / Fold change vs veh, ZBTB11 / RFU, TAMM41 / Fold change vs veh, TAMM41 / RFU, KIAA1704 /// LOC100996395 / Fold change vs veh, KIAA1704 /// LOC100996395 / RFU, ING1 / Fold change vs veh, ING1 / RFU, TRMT61B / Fold change vs veh, TRMT61B / RFU, FUBP3 / Fold change vs veh, FUBP3 / RFU, TP53 / Fold change vs veh, TP53 / RFU, TNKS2 / Fold change vs veh, TNKS2 / RFU, ZFP14 / Fold change vs veh, ZFP14 / RFU, ACTR2 / Fold change vs veh, ACTR2 / RFU, PPP3R1 / Fold change vs veh, PPP3R1 / RFU, PIK3R1 / Fold change vs veh, PIK3R1 / RFU, HNRNPA1 / Fold change vs veh, HNRNPA1 / RFU, RNF170 / Fold change vs veh, RNF170 / RFU, ZNF28 / Fold change vs veh, ZNF28 / RFU, RNGTT / Fold change vs veh, RNGTT / RFU, OGT / Fold change vs veh, OGT / RFU, BRD1 / Fold change vs veh, BRD1 / RFU, MARS / Fold change vs veh, MARS / RFU, ZNF655 / Fold change vs veh, ZNF655 / RFU, FAHD1 / Fold change vs veh, FAHD1 / RFU, BDP1 / Fold change vs veh, BDP1 / RFU, LRRCC1 / Fold change vs veh, LRRCC1 / RFU, ARID1A / Fold change vs veh, ARID1A / RFU, ZNF146 / Fold change vs veh, ZNF146 / RFU, ZNF330 / Fold change vs veh, ZNF330 / RFU, GPN3 / Fold change vs veh, GPN3 / RFU, C9orf123 / Fold change vs veh, C9orf123 / RFU, N4BP2L2 / Fold change vs veh, N4BP2L2 / RFU, ARFIP1 / Fold change vs veh, ARFIP1 / RFU, FAM179B / Fold change vs veh, FAM179B / RFU, BCL10 / Fold change vs veh, BCL10 / RFU, UHRF1BP1L / Fold change vs veh, UHRF1BP1L / RFU, BET1 / Fold change vs veh, BET1 / RFU, CNOT2 / Fold change vs veh, CNOT2 / RFU, ZNF268 / Fold change vs veh, ZNF268 / Fold change vs veh, ZNF507 / RFU, DGCR2 / Fold change vs veh, DGCR2 / RFU, WDSUB1 / Fold change vs veh, WDSUB1 / Fold change vs veh, HSP90B1 /// MIR3652 / RFU, ADSS / Fold change vs veh, ADSS / RFU, GK / Fold change vs veh, GK / RFU, ZNF148 / Fold change vs veh, ZNF148 / RFU, TAF9 / Fold change vs veh, TAF9 / RFU, SLC1A5 / Fold change vs veh, SLC1A5 / RFU, SLMO2 / Fold change vs veh, SLMO2 / RFU, ABCC4 / Fold change vs veh, ABCC4 / RFU, LOC101060439 /// RAP1B / Fold change vs veh, LOC101060439 /// RAP1B / RFU, RFX7 / Fold change vs veh, RFX7 / RFU, GTPBP10 / Fold change vs veh, GTPBP10 / RFU, CNEP1R1 / Fold change vs veh, CNEP1R1 / RFU, BIVM-ERCC5 /// ERCC5 / Fold change vs veh, BIVM-ERCC5 /// ERCC5 / RFU, ILF3 / Fold change vs veh, ILF3 / RFU 11762660_at / Fold change /veh 11762660_at / RFU VCAN (11757783_s_at) / Fold change /veh VCAN (11757783_s_at) / RFU DDX43 (11728927_at) / Fold change /veh DDX43 (11728927_at) / RFU KRT8 (11758188_x_at) / Fold change /veh KRT8 (11758188_x_at) / RFU NKD1 (11759106_at) / Fold change /veh NKD1 (11759106_at) / RFU SRD5A1 (11742802_a_at) / Fold change /veh SRD5A1 (11742802_a_at) / RFU TPSAB1 /// TPSB2 (11721975_s_at) / Fold change /veh TPSAB1 /// TPSB2 (11721975_s_at) / RFU GSTM3 (11746129_a_at) / Fold change /veh GSTM3 (11746129_a_at) / RFU IL23R (11737362_x_at) / Fold change /veh IL23R (11737362_x_at) / RFU TMEM51 (11727254_a_at) / Fold change /veh TMEM51 (11727254_a_at) / RFU PIWIL2 (11732686_x_at) / Fold change /veh PIWIL2 (11732686_x_at) / RFU ORM1 (11744905_x_at) / Fold change /veh ORM1 (11744905_x_at) / RFU CCDC152 (11743942_at) / Fold change /veh CCDC152 (11743942_at) / RFU ECM1 (11717891_a_at) / Fold change /veh ECM1 (11717891_a_at) / RFU IL23R (11748794_a_at) / Fold change /veh IL23R (11748794_a_at) / RFU TNFAIP8L3 (11732012_x_at) / Fold change /veh TNFAIP8L3 (11732012_x_at) / RFU MBOAT4 (11741988_at) / Fold change /veh MBOAT4 (11741988_at) / RFU 11764193_at / Fold change /veh 11764193_at / RFU TMEM53 (11763286_at) / Fold change /veh TMEM53 (11763286_at) / RFU MAGEB2 (11727129_at) / Fold change /veh MAGEB2 (11727129_at) / RFU TMEM200A (11744735_a_at) / Fold change /veh TMEM200A (11744735_a_at) / RFU CCDC152 (11751479_a_at) / Fold change /veh CCDC152 (11751479_a_at) / RFU FAM211A (11726209_a_at) / Fold change /veh FAM211A (11726209_a_at) / RFU RGS16 (11746705_a_at) / Fold change /veh RGS16 (11746705_a_at) / RFU VCAN (11755009_s_at) / Fold change /veh VCAN (11755009_s_at) / RFU RHOB (11743442_s_at) / Fold change /veh RHOB (11743442_s_at) / RFU RGS16 (11720943_a_at) / Fold change /veh RGS16 (11720943_a_at) / RFU RGS16 (11720944_at) / Fold change /veh RGS16 (11720944_at) / RFU, VPS4B / Fold change vs veh, VPS4B / RFU, CREB1 / Fold change vs veh, CREB1 / RFU, DNAJC13 / Fold change vs veh, DNAJC13 / RFU, GNAQ / Fold change vs veh, GNAQ / RFU, CDK5R1 / Fold change vs veh, CDK5R1 / RFU, ZRANB3 / Fold change vs veh, ZRANB3 / RFU, CUL4A / Fold change vs veh, CUL4A / RFU, CCNY / Fold change vs veh, CCNY / RFU, UFL1 / Fold change vs veh, UFL1 / RFU, COG3 / Fold change vs veh, COG3 / RFU, DIAPH2 / Fold change vs veh, DIAPH2 / RFU, SKA2 / Fold change vs veh, SKA2 / RFU, AFF3 / Fold change vs veh, AFF3 / RFU, LMF1 / Fold change vs veh, LMF1 / RFU, IPO11 / Fold change vs veh, IPO11 / RFU, DFFB / Fold change vs veh, DFFB / RFU, FOXP1 / Fold change vs veh, FOXP1 / RFU, CARD8 / Fold change vs veh, CARD8 / RFU, STRN3 / Fold change vs veh, STRN3 / RFU, ADK / Fold change vs veh, ADK / RFU, RASSF2 / Fold change vs veh, RASSF2 / RFU, WIPF1 / Fold change vs veh, WIPF1 / RFU, LARP1B / Fold change vs veh, LARP1B / RFU, RASA1 / Fold change vs veh, RASA1 / RFU, RB1 / Fold change vs veh, RB1 / RFU, PPFIA1 / Fold change vs veh, PPFIA1 / RFU, MAT2A / Fold change vs veh, MAT2A / RFU, CCT5 / Fold change vs veh, CCT5 / RFU, WDR92 / Fold change vs veh, WDR92 / RFU, CUX1 / Fold change vs veh, CUX1 / RFU, TTC7A / Fold change vs veh, TTC7A / RFU, TMEM135 / Fold change vs veh, TMEM135 / RFU, DEPTOR / Fold change vs veh, DEPTOR / RFU, CPM / Fold change vs veh, CPM / RFU, DNAJB6 / Fold change vs veh, DNAJB6 / RFU, CACNA2D3 / Fold change vs veh, CACNA2D3 / RFU, DTX4 / Fold change vs veh, DTX4 / RFU, TFCP2 / Fold change vs veh, TFCP2 / RFU, GMCL1 /// GMCL1P1 / Fold change vs veh, GMCL1 /// GMCL1P1 / RFU, AEBP2 / Fold change vs veh, AEBP2 / RFU, SNHG1 /// SNORD22 /// SNORD25 /// SNORD26 /// SNORD27 /// SNORD28 /// SNORD29 /// SNORD31 / Fold change vs veh, SNHG1 /// SNORD22 /// SNORD25 /// SNORD26 /// SNORD27 /// SNORD28 /// SNORD29 /// SNORD31 / Fold change (Aza/veh), C12orf56 (ProbeSet 11735607_a_at) / Fold change (ACY-1035/veh), C12orf56 (ProbeSet 11735607_a_at) / Fold change (Aza/veh), FGFR1OP (ProbeSet 11751329_s_at) / Fold change (ACY-1035/veh), FGFR1OP (ProbeSet 11751329_s_at) / Fold change (Aza/veh), VPS36 (ProbeSet 11739960_a_at) / Fold change (ACY-1035/veh), VPS36 (ProbeSet 11739960_a_at) / RFU SYPL1 (11715823_x_at) / Fold change /veh SYPL1 (11715823_x_at) / RFU IGFBP7 (11715501_s_at) / Fold change /veh IGFBP7 (11715501_s_at) / RFU REEP3 (11722064_at) / Fold change /veh REEP3 (11722064_at) / RFU IGLL1 (11728026_x_at) / Fold change /veh IGLL1 (11728026_x_at): dose or concentration left out as unconfirmed
Conditions: MV-4-11 cells, 48 hours

With `Nc1ncn([C@@H]2O[C@H](CO)[C@@H](O)[C@H]2O)c(=O)n1` [azacitidine] the “RFU TMEM136 (11760407_x_at)” value was 16.07 RFU.
